Patent US20210387966A1, “2-AMINO-N-HETEROARYL-NICOTINAMIDES AS NAV1.8 INHIBITORS” (Merck Sharp & Dohme Corp., priority 2018, published 2021)

Target: T1, human Nav1.8 channels (Homo sapiens, UniProt Q9Y5Y9)
T1 construct: expressed in transfected cells
Experiment: Nav1.8 Qube automated patch-clamp assay
Assay type: cell-based
Details: human Nav1.8 stably expressed in HEK 293 cells; whole-cell voltage clamp, room temperature; resting or inactivated state not specified; read-out: IC50 values (nM) for Examples in the Nav1.8 Qube Assay
How it was run: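 Whole-cell patch clamp at room temperature on HEK293 cells stably expressing human Nav1.8. A 1 Hz train of ten 20 ms pulses to 10 mV from −90 mV holding, with −67 mV repolarization, was applied; first- and tenth-pulse peak currents gave resting and inactivated-state IC50s by Hill fitting.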

T1 sequence (Q9Y5Y9 whole entry): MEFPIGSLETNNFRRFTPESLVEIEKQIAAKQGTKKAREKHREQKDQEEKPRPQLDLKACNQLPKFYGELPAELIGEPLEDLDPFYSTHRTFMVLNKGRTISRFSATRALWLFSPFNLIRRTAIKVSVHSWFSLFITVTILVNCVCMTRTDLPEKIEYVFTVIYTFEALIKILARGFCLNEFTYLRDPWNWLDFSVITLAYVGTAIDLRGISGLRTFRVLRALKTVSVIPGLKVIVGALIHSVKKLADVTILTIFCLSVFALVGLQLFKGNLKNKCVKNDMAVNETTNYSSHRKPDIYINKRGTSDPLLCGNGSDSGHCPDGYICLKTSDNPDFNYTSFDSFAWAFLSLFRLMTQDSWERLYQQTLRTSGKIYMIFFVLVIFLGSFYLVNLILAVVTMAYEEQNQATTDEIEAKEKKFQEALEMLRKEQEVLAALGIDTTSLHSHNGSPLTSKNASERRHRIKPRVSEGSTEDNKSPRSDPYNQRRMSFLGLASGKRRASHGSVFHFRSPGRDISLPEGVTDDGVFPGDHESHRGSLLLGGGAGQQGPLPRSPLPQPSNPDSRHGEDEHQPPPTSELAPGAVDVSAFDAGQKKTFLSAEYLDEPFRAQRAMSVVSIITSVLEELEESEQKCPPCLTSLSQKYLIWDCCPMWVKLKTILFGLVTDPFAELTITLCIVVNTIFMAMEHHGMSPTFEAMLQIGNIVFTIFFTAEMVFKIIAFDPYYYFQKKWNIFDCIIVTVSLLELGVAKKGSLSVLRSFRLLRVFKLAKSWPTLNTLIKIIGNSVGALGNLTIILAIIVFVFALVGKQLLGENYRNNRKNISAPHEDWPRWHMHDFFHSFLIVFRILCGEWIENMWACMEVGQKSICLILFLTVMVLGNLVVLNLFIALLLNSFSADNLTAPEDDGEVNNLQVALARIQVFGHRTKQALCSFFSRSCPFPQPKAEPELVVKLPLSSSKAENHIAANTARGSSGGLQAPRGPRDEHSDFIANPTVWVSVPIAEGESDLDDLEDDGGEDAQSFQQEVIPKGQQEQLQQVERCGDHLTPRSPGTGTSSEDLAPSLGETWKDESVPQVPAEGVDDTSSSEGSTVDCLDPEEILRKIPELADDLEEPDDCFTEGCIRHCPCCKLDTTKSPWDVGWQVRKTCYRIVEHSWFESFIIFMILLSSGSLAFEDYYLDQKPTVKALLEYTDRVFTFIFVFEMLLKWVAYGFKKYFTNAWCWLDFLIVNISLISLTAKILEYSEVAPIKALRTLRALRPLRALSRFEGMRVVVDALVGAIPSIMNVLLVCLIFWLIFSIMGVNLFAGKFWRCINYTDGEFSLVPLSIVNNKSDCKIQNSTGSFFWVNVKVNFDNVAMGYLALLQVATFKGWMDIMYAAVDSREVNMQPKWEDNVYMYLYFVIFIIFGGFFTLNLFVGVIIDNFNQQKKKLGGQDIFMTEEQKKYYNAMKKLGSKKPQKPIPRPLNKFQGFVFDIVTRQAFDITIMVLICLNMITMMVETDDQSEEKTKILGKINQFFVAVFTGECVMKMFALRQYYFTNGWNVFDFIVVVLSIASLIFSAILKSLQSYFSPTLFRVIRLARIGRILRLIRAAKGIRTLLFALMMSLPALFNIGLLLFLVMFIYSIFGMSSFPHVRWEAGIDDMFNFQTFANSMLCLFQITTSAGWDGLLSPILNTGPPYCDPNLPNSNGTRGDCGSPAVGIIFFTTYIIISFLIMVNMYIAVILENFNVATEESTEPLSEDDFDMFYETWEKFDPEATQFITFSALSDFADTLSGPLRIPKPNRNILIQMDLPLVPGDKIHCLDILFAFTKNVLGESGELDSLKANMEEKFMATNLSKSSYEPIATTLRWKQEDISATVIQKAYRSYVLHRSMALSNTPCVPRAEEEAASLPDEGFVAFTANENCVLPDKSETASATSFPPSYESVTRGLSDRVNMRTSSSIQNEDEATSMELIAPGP

Row | SMILES | IC50 [nM]
1 | Cc1sc(S(N)(=O)=O)cc1NC(=O)c1cc(C(F)(F)F)cnc1N1CCCCCC1 [Example 114, 2-(azepan-1-yl)-N-(2-methyl-5-sulfamoyl-thiophen-3-yl)-5-(trifluoromethyl)pyridine-3-carboxamide] | 95
2 | NS(=O)(=O)c1cc(NC(=O)c2cc(C(F)(F)F)cnc2N2CCC[C@H]2C(F)(F)F)ccn1 [Example 126, N-(2-sulfamoylpyridin-4-yl)-5-(trifluoromethyl)-2-[(2S)-2-(trifluoromethyl)pyrrolidin-1-yl]pyridine-3-carboxamide] | 21
3 | NS(=O)(=O)c1cc(NC(=O)c2cc(C(F)(F)F)cnc2N2CCC[C@@H]2C(F)(F)F)ccn1 [Example 127, (R)-N-(2-sulfamoylpyridin-4-yl)-5-(trifluoromethyl)-2-(2-(trifluoromethyl)pyrrolidin-1-yl)nicotinamide] | 220
4 | NC(=O)c1cc(NC(=O)c2cc(C(F)(F)F)cnc2N2CCCC(F)(F)CC2)ccn1 [Example 137, 4-(2-(4,4-difluoroazepan-1-yl)-5-(trifluoromethyl)nicotinamido)picolinamide] | 26
5 | COc1ccc(C(=O)Nc2ccnc(S(N)(=O)=O)c2)c(N2CCCC(F)(F)CC2)n1 [Example 142, 2-(4,4-difluoroazepan-1-yl)-6-methoxy-N-(2-sulfamoylpyridin-4-yl)nicotinamide] | 29
6 | COc1cc(NC(=O)c2cc(C(F)(F)F)cnc2N2CCC3(CC2)CC3)ccn1 [Example 143, N-(2-methoxypyridin-4-yl)-2-(6-azaspiro[2.5]octan-6-yl)-5-(trifluoromethyl)-nicotinamide] | 1540
7 | NS(=O)(=O)c1cncc(NC(=O)c2cc(C(F)(F)F)cnc2N2CCCC(F)(F)CC2)c1 [Example 144, 2-(4,4-difluoroazepan-1-yl)-N-(5-sulfamoyl-3-pyridyl)-5-(trifluoro-methyl)pyridine-3-carboxamide] | 36
8 | NS(=O)(=O)c1cncc(NC(=O)c2cc(C(F)(F)F)cnc2N2CCCCCC2)c1 [Example 145, 2-(azepan-1-yl)-N-(5-sulfamoyl-3-pyridyl)-5-(trifluoromethyl) pyridine-3-carboxamide] | 161
9 | COc1cc(NC(=O)c2cc(C(F)(F)F)cnc2N2CCCC(F)(F)CC2)ccn1 [Example 146, 2-(4,4-difluoroazepan-1-yl)-N-(2-methoxy-4-pyridyl)-5-(trifluoro-methyl)pyridine-3-carboxamide] | 177
10 | CS(=O)(=O)c1cc(NC(=O)c2cc(C(F)(F)F)cnc2N2C[C@H]3CC[C@H]3C2)ccn1 [Example 152, 2-[(1R,5S)-3-azabicyclo[3.2.0]heptan-3-yl]-N-(2-methylsulfonyl-4-pyridyl)-5-(trifluoro-methyl)pyridine-3-carboxamide] | 155
11 | N#Cc1cc(NC(=O)c2cc(C(F)(F)F)cnc2N2C[C@H]3CC[C@H]3C2)ccn1 [Example 153, 2-[(1R,5S)-3-azabicyclo[3.2.0]heptan-3-yl]-N-(2-cyano-4-pyridyl)-5-(tri-fluoromethyl)pyridine-3-carboxamide] | 310
12 | COc1ccnc(N2CCC(F)(F)CC2)c1C(=O)Nc1ccnc(S(N)(=O)=O)c1 [Example 159, 2-(4,4-difluoropiperidin-1-yl)-4-methoxy-N-(2-sulfamoylpyridin-4-yl)nicotinamide] | 1630
13 | NS(=O)(=O)c1cc(NC(=O)c2cc(OC(F)F)cnc2N2CCCC(F)(F)CC2)ccn1 [Example 171, 2-(4,4-difluoroazepan-1-yl)-5-(difluoromethoxy)-N-(2-sulfamoylpyridin-4-yl)nicotinamide] | 9.2
14 | NS(=O)(=O)c1cc(NC(=O)c2cc(C(F)(F)F)cnc2N2CCC(F)(F)CC2)ccn1 [Example 175, 2-(4,4-difluoropiperidin-1-yl)-N-(2-sulfamoylpyridin-4-yl)-5-(trifluoromethyl) nicotinamide] | 53
15 | Cc1nc(N2CCC(F)(F)CC2)c(C(=O)Nc2ccnc(S(N)(=O)=O)c2)cc1F [Example 178, 2-(4,4-difluoropiperidin-1-yl)-5-fluoro-6-methyl-N-(2-sulfamoylpyridin-4-yl)nicotinamide] | 13
16 | NS(=O)(=O)c1cc(NC(=O)c2cc(C3CC3)c(OC(F)(F)F)nc2N2CCC(F)(F)CC2)ccn1 [Example 182, 5-cyclopropyl-2-(4,4-difluoropiperidin-1-yl)-N-(2-sulfamoylpyridin-4-yl)-6-(trifluoromethoxy)nicotinamide] | 62
17 | Cc1nc(N2CCC(F)(F)CC2)c(C(=O)Nc2ccnc(S(N)(=O)=O)c2)cc1OCC(F)(F)F [Example 183] | 82
18 | COc1cc(NC(=O)c2c(N3CCCCCC3)nc(C)c(Cl)c2C)ccn1 [Example 187, 2-(azepan-1-yl)-5-chloro-N-(2-methoxy-4-pyridyl)-4,6-dimethyl-pyridine-3-carboxamide] | 141

Continued by falling IC50, values first:

Row | IC50 [nM] | SMILES
19 | 1290 | O=C(Nc1cncc(F)c1)c1cc(C(F)(F)F)cnc1N1CCCCCC1 [Example 186, 2-(azepan-1-yl)-N-(5-fluoropyridin-3-yl)-5-(trifluoromethyl)nicotinamide]
20 | 1090 | O=C(Nc1ccnc(S(=O)(=O)O)c1)c1cc(C(F)(F)F)cnc1N1CCC(F)(F)CC1 [Example 176, 4-(2-(4,4-difluoropiperidin-1-yl)-5-(trifluoromethyl)nicotinamido)pyridine-2-sulfonic acid]
21 | 245 | NS(=O)(=O)c1cccc(NC(=O)c2cc(C(F)(F)F)cnc2N2CCCCCC2)n1 [Example 141, 2-(azepan-1-yl)-N-(6-sulfamoyl-2-pyridyl)-5-(trifluoromethyl)pyridine-3-carboxamide]
22 | 199 | Cc1ncc(C(=O)Nc2ccnc(S(N)(=O)=O)c2)c(N2CCCC(F)(F)CC2)n1 [Example 173, 4-(4,4-difluoroazepan-1-yl)-2-methyl-N-(2-sulfamoylpyridin-4-yl)pyrimidine-5-carboxamide]
23 | 102 | NS(=O)(=O)c1cc(NC(=O)c2cc(C(F)(F)F)nnc2N2CCCC(F)(F)CC2)ccn1 [Example 179, 3-(4,4-difluoroazepan-1-yl)-N-(2-sulfamoylpyridin-4-yl)-6-(trifluoromethyl)pyridazine-4-carboxamide]
24 | 94 | NS(=O)(=O)c1cc(NC(=O)c2cc(C(F)(F)F)cnc2N2CCC(C(F)(F)F)C2)ccn1 (stereo not drawn) [Example 128, N-(2-sulfamoylpyridin-4-yl)-5-(trifluoromethyl)-2-[3-(trifluoromethyl)pyrrolidin-1-yl]pyridine-3-carboxamide]
25 | 91 | CS(=O)(=O)c1cc(NC(=O)c2cc(C(F)(F)F)cnc2N2CCCCCC2)ccn1 [Example 140, 2-(azepan-1-yl)-N-(2-methylsulfonyl-4-pyridyl)-5-(trifluoromethyl)-pyridine-3-carboxamide]
26 | 89 | CS(=O)(=O)c1cc(NC(=O)c2cc(C(F)(F)F)cnc2N2C[C@@H]3[C@H](C2)C(F)(F)C3(F)F)ccn1 [Example 151, N-(2-methylsulfonyl-4-pyridyl)-2-[(1R,5S)-6,6,7,7-tetrafluoro-3-azabicyclo[3.2.0]heptan-3-yl]-5-(trifluoro-methyl)pyridine-3-carboxamide]
27 | 77 | C[C@@H]1CN(c2ncc(C(F)(F)F)cc2C(=O)Nc2ccnc(C#N)c2)C[C@H](C)C1(F)F [Example 150, N-(2-cyano-4-pyridyl)-2-[(3S,5R)-4,4-difluoro-3,5-dimethyl-1-piperidyl]-5-(tri-fluoromethyl)pyridine-3-carboxamide]
28 | 24 | Cc1cc(Cl)nc(N2CCC(F)(F)CC2)c1C(=O)Nc1ccnc(S(N)(=O)=O)c1 [Example 170, 6-chloro-2-(4,4-difluoropiperidin-1-yl)-4-methyl-N-(2-sulfamoylpyridin-4-yl)nicotinamide]
29 | 17 | NS(=O)(=O)c1cc(NC(=O)c2cc(C3CC3)c(C(F)(F)F)nc2N2CCC(F)(F)CC2)ccn1 [Example 181, 5-cyclopropyl-2-(4,4-difluoropiperidin-1-yl)-N-(2-sulfamoylpyridin-4-yl)-6-(trifluoromethyl)nicotinamide]
30 | 16 | NS(=O)(=O)c1cc(NC(=O)c2cc(C(F)(F)F)cnc2N2CCCCCC2)ccn1 [Example 139, 2-(azepan-1-yl)-N-(2-sulfamoyl-4-pyridyl)-5-(trifluoromethyl)pyridine-3-carboxamide]
31 | 14 | Cc1nc(N2CCC(F)(F)CC2)c(C(=O)Nc2ccnc(S(N)(=O)=O)c2)cc1C(C)(C)C [Example 180, 5-(tert-butyl)-2-(4,4-difluoropiperidin-1-yl)-6-methyl-N-(2-sulfamoylpyridin-4-yl)nicotinamide]
32 | 5.9 | Cc1nc(N2CCCCCC2)c(C(=O)Nc2cncc(S(N)(=O)=O)c2)c(C)c1Cl [Example 188, 2-(azepan-1-yl)-5-chloro-4,6-dimethyl-N-(5-sulfamoyl-3-pyridyl)pyridine-3-carboxamide]
33 | 4.1 | NS(=O)(=O)c1cc(NC(=O)c2ccc(C(F)F)nc2N2CCCC(F)(F)CC2)ccn1 [Example 174, 2-(4,4-difluoroazepan-1-yl)-6-(difluoromethyl)-N-(2-sulfamoylpyridin-4-yl)nicotinamide]
34 | 3.8 | NS(=O)(=O)c1cc(NC(=O)c2cc(C(F)(F)F)c(C3CC3)nc2N2CCCC(F)(F)CC2)ccn1 [Example 185, 6-cyclopropyl-2-(4,4-difluoroazepan-1-yl)-N-(2-sulfamoylpyridin-4-yl)-5-(trifluoromethyl)nicotinamide]
35 | 2 | CC1CN(c2ncc(C(F)(F)F)cc2C(=O)Nc2ccnc(S(N)(=O)=O)c2)CCCC1(F)F (stereo not drawn) [Example 131, 2-(4,4-difluoro-3-methylazepan-1-yl)-N-(2-sulfamoylpyridin-4-yl)-5-(trifluoromethyl)nicotinamide]
36 | 1.6 | CC1CCN(c2ncc(C(F)(F)F)cc2C(=O)Nc2ccnc(S(N)(=O)=O)c2)CCC1(F)F (stereo not drawn) [Example 115, 2-(4,4-difluoro-5-methylazepan-1-yl)-N-(2-sulfamoylpyridin-4-yl)-5-(trifluoromethyl)pyridine-3-carboxamide]
